# Measured values reported in PubChem BioAssay AID1963848 (Molecular Pharmacology Branch, DTP, NCI, 2024).
# Tested on: 379773-124-R-J2-PDC spheroid viability
# Test: Anticancer human tumor 379773-124-R-J2-PDC patient-derived endometrial carcinoma cell line growth inhibition [POLQ]
# Settings: spheroids with HUVEC and MSC; for IC50: curve of first compound; for viability, T/C: stronger effect = lower value
# How it was run: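 Patient-derived tumour cells were co-cultured with HUVEC and mesenchymal stem cells as multicellular spheroids at 37 °C. They were treated with POLQ inhibitors (novobiocin, ART-558, RP6685) alone or combined with other agents. Top concentrations were at or near clinical Cmax (otherwise 10 microM; SN-38 at 1 microM), decreasing in half-log steps.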
# [1] = second compound 0.0316 µM, first compound 0.0316 µM
# [2] = second compound 0.0316 µM, first compound 0.1 µM
# [3] = second compound 0.0316 µM, first compound 0.316 µM
# [4] = second compound 0.0316 µM, first compound 1 µM
# [5] = second compound 0.1 µM, first compound 0.0316 µM
# [6] = second compound 0.1 µM, first compound 0.1 µM
# [7] = second compound 0.1 µM, first compound 0.316 µM
# [8] = second compound 0.1 µM, first compound 1 µM
# [9] = second compound 0.316 µM, first compound 0.0316 µM
# [10] = second compound 0.316 µM, first compound 0.1 µM
# [11] = second compound 0.316 µM, first compound 0.316 µM
# [12] = second compound 0.316 µM, first compound 1 µM
# [13] = second compound 1 µM, first compound 0.0316 µM
# [14] = second compound 1 µM, first compound 0.1 µM
# [15] = second compound 1 µM, first compound 0.316 µM
# [16] = second compound 1 µM, first compound 1 µM
# [17] = second compound 3.16 µM, first compound 0.0316 µM
# [18] = second compound 3.16 µM, first compound 0.1 µM
# [19] = second compound 3.16 µM, first compound 0.316 µM
# [20] = second compound 3.16 µM, first compound 1 µM
# [21] = second compound 10 µM, first compound 0.0316 µM
# [22] = second compound 10 µM, first compound 0.1 µM
# [23] = second compound 10 µM, first compound 0.316 µM
# [24] = second compound 10 µM, first compound 1 µM
# [25] = second compound 0.0316 µM, first compound 3.16 µM
# [26] = second compound 0.0316 µM, first compound 10 µM
# [27] = second compound 0.1 µM, first compound 3.16 µM
# [28] = second compound 0.1 µM, first compound 10 µM
# [29] = second compound 0.316 µM, first compound 3.16 µM
# [30] = second compound 0.316 µM, first compound 10 µM
# [31] = second compound 1 µM, first compound 3.16 µM
# [32] = second compound 1 µM, first compound 10 µM
# [33] = second compound 3.16 µM, first compound 3.16 µM
# [34] = second compound 3.16 µM, first compound 10 µM
# [35] = second compound 10 µM, first compound 3.16 µM
# [36] = second compound 10 µM, first compound 10 µM
# 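Further: spheroids exposed to drugs for seven days before readout.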
# 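Wherever viability, T/C is given: percent viability relative to DMSO vehicle control taken as 100%.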
compound,measurement,setting,value
C=CCn1c(=O)c2cnc(Nc3ccc(N4CCN(C)CC4)cc3)nc2n1-c1cccc(C(C)(C)O)n1 + Cc1cccc(N(C)C(=O)C2C(O)CCN2c2nc(C)cc(C(F)(F)F)c2C#N)c1,IC50,second compound 0.0316 µM,0.457 µM
same,IC50,second compound 0.1 µM,0.441 µM
same,IC50,second compound 0.316 µM,0.411 µM
same,IC50,second compound 1 µM,0.416 µM
same,IC50,second compound 3.16 µM,0.443 µM
same,IC50,second compound 10 µM,0.406 µM
same,"viability, T/C","second compound 0.0316 µM, first compound 0.00316 µM",88.5%
same,"viability, T/C","second compound 0.0316 µM, first compound 0.01 µM",86%
same,"viability, T/C",[1],85.2%
same,"viability, T/C",[2],98%
same,"viability, T/C",[3],72.2%
same,"viability, T/C",[4],3.05%
same,"viability, T/C","second compound 0.1 µM, first compound 0.00316 µM",91.4%
same,"viability, T/C","second compound 0.1 µM, first compound 0.01 µM",98.3%
same,"viability, T/C",[5],93.1%
same,"viability, T/C",[6],98.1%
same,"viability, T/C",[7],68.8%
same,"viability, T/C",[8],3.55%
same,"viability, T/C","second compound 0.316 µM, first compound 0.00316 µM",100%
same,"viability, T/C","second compound 0.316 µM, first compound 0.01 µM",91.5%
same,"viability, T/C",[9],96.4%
same,"viability, T/C",[10],90.8%
same,"viability, T/C",[11],63.6%
same,"viability, T/C",[12],4%
same,"viability, T/C","second compound 1 µM, first compound 0.00316 µM",86.5%
same,"viability, T/C","second compound 1 µM, first compound 0.01 µM",96.7%
same,"viability, T/C",[13],95.1%
same,"viability, T/C",[14],95.3%
same,"viability, T/C",[15],64.9%
same,"viability, T/C",[16],2.86%
same,"viability, T/C","second compound 3.16 µM, first compound 0.00316 µM",98.2%
same,"viability, T/C","second compound 3.16 µM, first compound 0.01 µM",90.2%
same,"viability, T/C",[17],88.2%
same,"viability, T/C",[18],94%
same,"viability, T/C",[19],69.5%
same,"viability, T/C",[20],2.86%
same,"viability, T/C","second compound 10 µM, first compound 0.00316 µM",87.5%
same,"viability, T/C","second compound 10 µM, first compound 0.01 µM",86.1%
same,"viability, T/C",[21],85.9%
same,"viability, T/C",[22],89.5%
same,"viability, T/C",[23],63%
same,"viability, T/C",[24],3.05%
CCCS(=O)(=O)Nc1ccc(F)c(C(=O)c2c[nH]c3ncc(-c4ccc(Cl)cc4)cc23)c1F + Cc1cccc(N(C)C(=O)C2C(O)CCN2c2nc(C)cc(C(F)(F)F)c2C#N)c1,IC50,second compound 0.0316 µM,> 10 µM
same,IC50,second compound 0.1 µM,> 10 µM
same,IC50,second compound 0.316 µM,> 10 µM
same,IC50,second compound 1 µM,> 10 µM
same,IC50,second compound 3.16 µM,> 10 µM
same,IC50,second compound 10 µM,> 10 µM
same,"viability, T/C",[1],88.6%
same,"viability, T/C",[2],102%
same,"viability, T/C",[3],90.9%
same,"viability, T/C",[4],99.4%
same,"viability, T/C",[25],82.1%
same,"viability, T/C",[26],62.3%
same,"viability, T/C",[5],101%
same,"viability, T/C",[6],89.5%
same,"viability, T/C",[7],95.2%
same,"viability, T/C",[8],87.4%
same,"viability, T/C",[27],86.6%
same,"viability, T/C",[28],58.7%
same,"viability, T/C",[9],97.4%
same,"viability, T/C",[10],98.5%
same,"viability, T/C",[11],94.9%
same,"viability, T/C",[12],87.1%
same,"viability, T/C",[29],78.5%
same,"viability, T/C",[30],60.1%
same,"viability, T/C",[13],98.9%
same,"viability, T/C",[14],88.7%
same,"viability, T/C",[15],85.2%
same,"viability, T/C",[16],86.5%
same,"viability, T/C",[31],80.3%
same,"viability, T/C",[32],64.3%
same,"viability, T/C",[17],92%
same,"viability, T/C",[18],90.4%
same,"viability, T/C",[19],85.7%
same,"viability, T/C",[20],85.3%
same,"viability, T/C",[33],73.8%
same,"viability, T/C",[34],63%
same,"viability, T/C",[21],89.9%
same,"viability, T/C",[22],92.1%
same,"viability, T/C",[23],87.7%
same,"viability, T/C",[24],83.9%
same,"viability, T/C",[35],77.8%
same,"viability, T/C",[36],53.9%
O=C(c1cc(Cc2n[nH]c(=O)c3ccccc23)ccc1F)N1CCN(C(=O)C2CC2)CC1 + Cc1cccc(N(C)C(=O)C2C(O)CCN2c2nc(C)cc(C(F)(F)F)c2C#N)c1,IC50,second compound 0.0316 µM,6.37 µM
same,IC50,second compound 0.1 µM,7.6 µM
same,IC50,second compound 0.316 µM,8.22 µM
same,IC50,second compound 1 µM,8.16 µM
same,IC50,second compound 3.16 µM,6.72 µM
same,IC50,second compound 10 µM,6.14 µM
same,"viability, T/C",[1],79.5%
same,"viability, T/C",[2],89.5%
same,"viability, T/C",[3],83.8%
same,"viability, T/C",[4],80.9%
same,"viability, T/C",[25],76.8%
same,"viability, T/C",[26],32.7%
same,"viability, T/C",[5],89.2%
same,"viability, T/C",[6],89.6%
same,"viability, T/C",[7],75.7%
same,"viability, T/C",[8],75.8%
same,"viability, T/C",[27],74.1%
same,"viability, T/C",[28],42.5%
same,"viability, T/C",[9],90.2%
same,"viability, T/C",[10],80.2%
same,"viability, T/C",[11],82.8%
same,"viability, T/C",[12],85.3%
same,"viability, T/C",[29],71.7%
same,"viability, T/C",[30],45.1%
same,"viability, T/C",[13],88.3%
same,"viability, T/C",[14],87.9%
same,"viability, T/C",[15],77.7%
same,"viability, T/C",[16],83.5%
same,"viability, T/C",[31],95.4%
same,"viability, T/C",[32],42.2%
same,"viability, T/C",[17],73.5%
same,"viability, T/C",[18],78.4%
same,"viability, T/C",[19],81.5%
same,"viability, T/C",[20],76.7%
same,"viability, T/C",[33],97.2%
same,"viability, T/C",[34],33.4%
same,"viability, T/C",[21],78.2%
same,"viability, T/C",[22],78.9%
same,"viability, T/C",[23],85.5%
same,"viability, T/C",[24],72.4%
same,"viability, T/C",[35],73.4%
same,"viability, T/C",[36],33.7%
